Reference: PMC9814457 (2022)

Test system: QDJ1 (model quadruplex-duplex junction) (DNA, G4) GGTTGGCGCGAAGCATTCGCGGGTTGG
Assay: NMR ligand protection (53-compound library, HSQC difference)
Settings: 20 mM KCl; 20 mM K2HPO4, pH 7.0; 30 μM DNA

NCc1cc(CN)cc(CN)c1
binding: yes
